Experimental data from patent US20250237648A1, “BACTERIAL BIOSENSORS FOR DIAGNOSING AND TREATING INFLAMMATION” (Baylor College of Medicine, priority 2022, published 2025).
Where “and” joins values, the source holds several entries; their conditions need not be identical. Identical values can stand only once. Like-named read-outs stand apart in the source and are kept apart here.

How the values were obtained:
Assay type in all cases: cell-based, Escherichia coli Nissle 1917
[1] = test system: Pykg biosensor (EcN/pBSI0)
Experimental: To validate that the Pykg is sensitive to zinc but not other metals bound by calprotectin, BSI0 was incubated with 40 μg/mL of calprotectin with or without supplementation of an equimolar amount of zinc, manganese, or iron.
Mixes were similar to the calprotectin induction assays with the addition of zinc sulfate, manganese sulfate, or iron chloride. Concentrations of metals were added in excess of 1× and 10× the binding capacity of 40 μg/mL (1.5 μM) calprotectin. In total, 4 μM and 40 μM of zinc and iron were added, and 2 μM and 20 μM of manganese was added.

ykg promoter = assay: Zur expression optimization for low basal expression of ykg promoter; conditions: zur driven by constitutive promoter on same plasmid
Source text: To increase the dynamic range of the Pykg expression, the high level of basal expression when the operon is not activated by zinc limitation needed to be reduced. It was considered that the basal level of expression was high because the ykg promoter was being expressed from a multicopy plasmid while the Zur repressor was being synthesized from the chromosome, altering their normal stoichiometry. To identify the optimal level of Zur to reduce the basal expression while maintaining the ability to respond to zinc limitation, several constructs were tested in which the zur gene was driven by constitutive promoters of increasing strength on the same plasmid as the ykg promoter (FIG. 2A) . . . . […] Other promoters were either too weak (J23113) to reduce the basal level of promoter expression or were too strong (J23100, J23110) to allow induction of the Pykg upon zinc depletion. Additional studies utilized the J23109 promoter construct, now denoted as pBSI1 (bacterial sensor of inflammation).
To reduce the background of Pygk biosensor, zinc binding transcription factor Zur was inserted into pColE-based sensor construct (pColE1-Pykg-sfgfp) under the control of different constitutive expresison promoters. […] The sensitivity and expression strength of new biosensor constructs was analyzed through fluorescence detection and RT-qPCR.

ykgMO, ent and abt genes = assay: RT-qPCR verification of calprotectin-responsive genes with TPEN; conditions: 30 μM TPEN, LB media, 30 minutes
Source text: FIGS. 1A-1K. Selection of the ykgMO promoter to sense calprotectin levels and sensitivity of ygkMO, ent and abt biosensors to metal starvation. 1A: Sensitivity of ykgMO (50S Ribosomal Protein L36/L31 type B) promoter (Pykg) biosensor to calprotectin; 1B-ID: Sensitivity of ent (1B), abt (1C), and ykg (1D) promoter constructs to TPEN in M9 media detected by Flow Cytometer; 1E: Minimum inhibitory concentration (MIC) of calprotectin on E. coli Nissile1917 (referred to EcN) in LB media; IF: Upregulation of calprotectin responsive promoters with TPEN induction in LB media verified by RT-qPCR; 1G: Sensitivity of ent promoter construct to TPEN in M9 media detected by plate reader; 1H: Sensitivity of abt promoter construct to TPEN in M9 media detected by plate reader; 1I: Sensitivity of ykg promoter construct to TPEN in M9 media detected by plate reader; 1J: Upregulation of calprotectin responsive ykgMO) promoter with TPEN induction in M9 media verified by RT-qPCR; 1K: Quenching of different ions on Pykg biosensor (EcN/pBSI0). Equimolar (1.5 μM) or 10×-excess (15 μM) of Zn^2+, Mn^2+, and Fe^2+ were added to Pykg biosensor co-cultured with 40 μg/mL calprotectin in M9 media. 1.5 μM (equivalent metal binding capacity of 40 μg/mL calprotectin), 3 μM, or 30 μM co-cultured with E. coli Nissle 1917 biosensors in pure culture. Calprotectin only-N=9. […]

[2] = test system: Pykg, Pent and Pabt promoter constructs; assay: TPEN induction of promoter-sfgfp constructs (fluorescence); conditions: M9 minimal medium
Experimental: Selection of the ykgMO promoter to sense calprotectin levels. To assess the ykg, ent, and abt promoters as potential sensors of the metal sequestration activity of calprotectin, Pykg, Pent, and Paht were cloned into plasmid pColE1 driving the expression of superfolder GFP (sfgfp). Sensor fluorescence was next analyzed in M9 minimal medium and used metal chelator TPEN to mimic the metal depletion of calprotectin.
EcN biosensor constructs were grown to early log phase (˜0.1 OD600) in M9 media with glucose, and were back diluted to 0.01 OD600 and then grown for ˜4 hours aerobically, until OD600 reached ˜0.15. At this point, cells were kept on ice until analysis on a Becton Dickinson FACScan flow cytometer. Flow cytometry runs were performed in 96 well plates. Briefly, 10-40 μL of cells were added to 1 mL of PBS sheath fluid and run through the flow cytometer for a total of 10000 events. Cells were thresholded on forward/side scatter, and .fsc files were analyzed with the FlowCal software. In short, FlowCal identifies the densest region of cells on the associated scatterplot, and analyzes the fluorescent output of 30% of the cells in this region so as to evaluate a homogenous dataset and remove possible outliers. […] In this case, sfGFP output is reported as molecules of equivalent fluorophores (MEF), and was evaluated on the FL1 channel. […]

[3] = test system: siderophore enterobactin operon (ent); assay: RNA sequencing of calprotectin-treated EcN: ent operon; conditions: 125 μg/mL calprotectin 30 min, LB, over untreated cells
Experimental: (§1) It was considered that exposing EcN to a sub-inhibitory concentration of calprotectin that was near the MIC would yield the best opportunity to identify physiologically relevant promoters that respond to calprotectin. The minimal inhibitory concentration of calprotectin (250 μg/mL) was first identified using EcN growth in LB media (FIG. 1E). Therefore, EcN were grown into the mid-exponential phase in LB media and then treated cultures with 125 µg/mL of calprotectin for 30 minutes or without calprotectin as a negative control. As an additional control, a mutant version was used of calprotectin that lacks the ability to bind metals, rendering the protein unable to carry out nutritional immunity.
(§2) For transcriptome analysis, EcN cells were grown overnight, and then back-diluted 1:100 into 5 mL of LB broth. When cells were grown up to the log phase, the sub-inhibitory amount of calprotectin was added to the cultures at a final concentration of 125 μg/mL. […] RNA was quantified and tested for purity using a Denovix spectrophotometer (Denovix, Wilmington, Delaware). RNA-seq was performed by Applied Biological Materials (ABM) (Richmond, British Columbia, Canada) on an Illumina NextSeq sequencer, at an average of 5 million reads per sample. rRNA depletion and quality check were also performed by ABM. […]

[4] = test system: E. coli Nissle 1917 (EcN); assay: Minimum inhibitory concentration of calprotectin on EcN; conditions: 10^4 EcN cells, overnight, LB media, two-fold dilutions
Experimental: Identification of E. coli Nissle promoters responsive to calprotectin. […] Currently, fecal calprotectin levels are used as a non-invasive way of monitoring intestinal inflammation, however compliance with such tests is low due to the need for patients to handle their own feces. Therefore, the development of an ingestible bacterial biosensor that would sense and report intestinal inflammation was contemplated. […] To do this the minimal inhibitory concentration of calprotectin incubated with EcN in vitro was first identified.
as §1
To explore biosensor promoters that can respond to calprotectin, the transcriptome of EcN treated with the sub-inhibitory amount of calprotectin was analyzed. […]

[5] = test system: ykgMO operon (50S Ribosomal Protein L36/L31 type B); assay: RNA sequencing of calprotectin-treated EcN: ykgMO operon; conditions: 125 μg/mL calprotectin 30 min, LB, over untreated cells
Experimental: as §1, §2

[6] = test system: ATP-binding cassette transporter cluster (abt); assay: RNA sequencing of calprotectin-treated EcN: abt cluster; conditions: 125 μg/mL calprotectin 30 min, LB, over untreated cells
Experimental: as §1, §2

[7] = 40 μg/mL calprotectin, equimolar metal, M9

O=S(=O)([O-])[O-].[Zn+2] [Zn, zinc sulfate]
repression of BSI0 activation in the presence of calprotectin [1]: totally repress the activation

J23114: constitutive promoter (SEQ ID NO: 4) driving zur on the ykg promoter plasmid (DNA TTTATGGCTAGCTCAGTCCTAGGTACAATGCTAGC; listed as DNA, chemistry not fully specified)
reduction of basal expression from the ykg promoter (ykg promoter): 100 fold

J23109: constitutive promoter (SEQ ID NO: 5) driving zur; construct denoted pBSI1 (DNA TTTACAGCTAGCTCAGTCCTAGGGACTGTGCTAGC; listed as DNA, chemistry not fully specified)
reduction of basal expression from the ykg promoter (ykg promoter): 100 fold

manganese sulfate [Mn]
repression of BSI0 activation in the presence of calprotectin [1, 7]: not

c1ccc(CN(CCN(Cc2ccccn2)Cc2ccccn2)Cc2ccccn2)nc1 [TPEN, N,N,N′, N′-tetrakis(2-pyridinylmethyl)-1,2-ethanediamine]
gene upregulation by RT-qPCR (ykgMO, ent and abt genes): upregulated | activation of promoter constructs (sfGFP fluorescence) compared to control [2]: 2-3 fold

iron chloride [Fe]
repression of BSI0 activation in the presence of calprotectin [1, 7]: not

B1: calprotectin: Recombinant human calprotectin; neutrophil-source antimicrobial protein that sequesters zinc, manganese and iron (protein, UniProt P05109 1-93; P06702 1-114, looked up)
Protein S100-A8: MLTELEKALNSIIDVYHKYSLIKGNFHAVYRDDLKKLLETECPQYIRKKGADVWFKELDINTDGAVNFQEFLILVIKMGVAAHKKSHEESHKE
Protein S100-A9: MTCKMSQLERNIETIINTFHQYSVKLGHPDTLNQGEFKELVRKDLQNFLKKENKNEKVIEHIMEDLDTNADKQLSFEEFIMLMARLTWASHEKMHEGDEGPGHHHKPGLGEGTP
Fold-Change in Gene Expression, ent operon [3]: up to 4.8 fold | Fold-Change in Gene Expression, ent operon ([3]; listed as Calprotectin): 4.38-4.78 fold | minimal inhibitory concentration of calprotectin [4]: 256 µg/mL and 250 µg/mL | Fold-Change in Gene Expression, ykgMO [5]: up to 10.3 fold | Fold-Change in Gene Expression, ykgMO ([5]; listed as Calprotectin): 4.20-10.26 fold | Fold-Change in Gene Expression, ABC transporter cluster [6]: 3.80-9.44 fold
